Measurements taken from a melting point compilation (Tetko et al.; mined from patent text by program, amines drawn as free bases though some values may be those of a salt).

| Structure (SMILES) | melting point [°C] |
| --- | --- |
| CC(=O)OC1CCC2(C)C(=CCC3C4CC(OC(C)=O)C(=O)C4(C)CCC32)C1 (stereo not given) | 173 to 174 |
| O=C(O)CCC1CC(O)C(=O)N1 (stereo not given) | 129 to 132 |
| O=C1CCc2c(Cl)cc(F)cc21 | 94 to 96 |
| CCOC(=O)c1nc(-c2ccc(Cl)c(OC)c2F)cc(N)c1Cl | 74 to 75 |
| FC(F)(F)CC1(CC2(CC(F)(F)F)N=c3cc(Cl)c(Cl)cc3=N2)N=c2cc(Cl)c(Cl)cc2=N1 | 235 to 237 |
| COc1cc2c(cc1OC)C(Cc1cc(I)c(NC(C)=O)c(I)c1)N(C(=O)C(F)(F)F)CC2 (stereo not given) | 218 to 219 |
| CCC1CN(O)CCN1O (stereo not given) | 137 |
| COc1ccc(-c2c(N)cnc3ccc(Cl)cc23)cc1OC | 187 to 190 |
| O=C(O)CC1(CCl)OCCO1 | 64 to 65 |
| CN1CCc2nc3cc(Cl)ccc3c(-c3cccs3)c2C1 | 131 to 132 |
| COc1cc(C(O)C(C)C)cc2c1OC(C)(C)C2 (stereo not given) | 113 to 116 |
| COC(=O)c1ccc(CCC(=O)/C=C/c2ccc(O)c(OC)c2)o1 | 93 to 94 |
| COc1ccc(N2CCN(c3c(C)c(C)c4c(c3C)C(c3cccs3)C(C)(C)O4)CC2)cc1 (stereo not given) | 139 to 141 |
| CC(=O)c1ccncc1OC1SCC(O)C(O)C1O (stereo not given) | 163 |
| CCCCCCCCCCOc1ccc(OCc2ccccc2)c(C(=O)N(CC(=O)OCC)CC(=O)OCC)c1 | 37 to 38 |
| O=C(CNc1ccc(Cl)cc1)c1cc(O)c(O)c([N+](=O)[O-])c1 | 177 to 178 |
| CCOC(=O)c1ncn2c1CN=C(c1ccccn1)c1cc(C#C[Si](C)(C)C)ccc1-2 | 205 to 206 |
| CCCCCCCN(CCCCCSc1nc2cc(C)ccc2[nH]1)C(=O)Nc1ccc(F)cc1F | 70 to 72 |
| CCN1CCCC1CNC(=O)c1c(C)[nH]c(C=O)c1C (stereo not given) | 166 to 169 |
| CC(Cn1ncnn1)n1nnc2cc3c(=O)n(CC(C)(C)O)nnc3cc2c1=O (stereo not given) | 128 to 130 |
| Cn1cccc1C(=O)NCCO | 78.1 |

| Structure (SMILES) | melting point [°C] |
| --- | --- |
| CCCCOc1c(CNC(=O)OC(C)(C)C)n(CC(C)(C)C)c(=O)c2ccc(/C=C/C(N)=O)cc12 | 121 to 122 |
| CC(=O)Nc1ncnc2c1ncn2[C@@H]1C[C@H](OC(C)=O)[C@@H](O)[C@H]1O (racemic) | 193 to 195 |
| COc1ccc(C(=O)NCCCCCCCNC(=O)c2ccc(OC)cc2)cc1 | 157 to 159 |
| COc1ccc(C(=O)Nc2ccc(F)cc2)cc1N([N+](=O)[O-])S(=O)(=O)c1ccccc1 | 221 to 240 |
| CC(C)(C)C(O)(CCC1CCCCC1)Cn1cncn1 (stereo not given) | 63 to 67 |
| COc1cc(OC)nc(NC(=O)NS(=O)(=O)c2nccn2-c2nn(C)cc2Cl)n1 | 164 to 165 |
| CCOC1=NC(C)(C)NC(N)=N1 | 175 to 178 |
| CCCC(=O)c1cnc2c(OC)csc2c1Nc1ccc(O)cc1C | 255 to 257 |
| COC(=O)c1cc(C#CCOC2CCCCO2)c(C(F)(F)F)cc1N (stereo not given) | 88 |
| Cc1cc(-c2ccc(Cl)cc2)nc(-n2cnc(-c3ccc(S(N)(=O)=O)s3)c2)n1 | 281 |
| Cc1cc(C#N)ccc1N1CCOCC1 | 85 to 86 |
| COc1ccc(C2=CCC(=O)CC2)c2c1OCCO2 | 56 to 59 |
| Clc1nc(Br)cnc1N1CCNCC1 | 114 to 115 |
| CCOC(=O)c1cn(C2CC2)c2cc(-c3cc(C)nc(C)c3)c(F)cc2c1=O | 198 to 200 |
| CC(C)Oc1ccc(Cc2ccc(N)cc2)cc1 | 92 to 93 |
| CCOC(=O)n1c(=O)[nH]c2cc(OC)ccc21 | 180 to 183 |
| CCCOC(=O)C1=C(C)NC(C)=C(C(=O)OCC2CC2)C1c1cccc([N+](=O)[O-])c1 (stereo not given) | 167 to 168 |
| CC1(C)CC(OC(=O)c2ccccc2C(=O)OC2CC(C)(C)N(OC3CCCCC3)C(C)(C)C2)CC(C)(C)N1OC1CCCCC1 | 149 to 151 |
| NC1=NC(c2ccc(OC(F)(F)F)cc2)(c2cccc(-c3cccnc3F)c2)C2=NCCCCN12 (stereo not given) | 88 to 97 |
| Cc1nc(N2CCOCC2)c2n1-c1ccc(Cl)cc1C(c1ccccc1F)=NC2 | 172 to 174 |

The remaining lines, values ahead:

| melting point [°C] | Structure (SMILES) |
| --- | --- |
| 159 | CC(C)c1ccc(-c2cn(C)cc(-c3ccccc3)c2=O)cc1 |
| > 250 | Nc1nc(O)c2cc(C=Cc3ccc(C(=O)O)cc3)cnc2n1 |
| 168 to 171 | CC(Cn1cc(Cl)c2ccccc21)N(O)C(N)=O (stereo not given) |
| 136 to 139 | CCOC(=O)CC(=O)c1cn(C(c2ccccc2)(c2ccccc2)c2ccccc2)cn1 |
| 191 to 194 | O=C(Nc1ccc(CN2C(=O)C3CCCC3N(C(=O)CN3C(=O)c4ccccc4C3=O)c3ccccc32)cc1)c1ccc2ccccc2c1 (stereo not given) |
| 109 to 110 | CC=CCn1c(C)c(C)c2cnnc(OCc3ccc(OC(F)F)cc3)c21 |
| 104 to 105 | O=C(c1ccccc1)N1CCN(c2cncc(Cl)n2)CC1 |
| 61 to 62 | O=C1CCOc2cc(F)ccc21 |
| 71 | CC(C)Oc1cccc(CSc2nc(N)cc(Cl)n2)c1 |
| 230 to 235 | Cc1cc(NC(=O)NC(=O)c2c(Cl)cccc2Cl)nc(C)c1-c1ccccc1 |
| 150 to 151 | Cc1sc(NC(=O)CCc2cnoc2-c2ccccc2)nc1-c1ccccc1 |
| 120 to 122 | CC(c1cc2ccccc2s1)N(OC(=O)OC(C)(C)C)C(N)=O (stereo not given) |
| 180 to 182 | CC1(C(=O)c2c[nH]c3ncc(-c4cccc(N5CCCC5)c4)nc23)CCCCC1 |
| 155 to 156 | CCNC(=S)c1ccc2c(c1)Nc1ccccc1S2 |
| 128 to 130 | O=c1n(F)nc(SC(Cl)Cl)n1-c1ccccc1 |
| 107 to 110 | COC=C(C(=O)OC)c1ccccc1C#CC1=CCN(c2ccc(Cl)cc2)O1 |
| 193 to 195 | O=C(NNS(=O)(=O)c1ccccc1)c1ccc(I)cc1 |
| 309 | CC(C)(C)c1c(C(=O)NC2C3CC4CC(C3)CC2C4)cnn1-c1ccc(C(=O)O)cc1 (stereo not given) |
| 101 to 103 | CC(C)(C)CC(C)(C)c1ccc(O)c(-n2nc3ccccc3n2)c1 |
| 145 to 146 | Cc1ccc(-c2ccc3ccccc3c2C(=O)N(C)C)cc1 |

| melting point [°C] | Structure (SMILES) |
| --- | --- |
| 118 | CN1C(=O)N(Cc2ccccc2)CC1(CCO)c1ccc(Cl)c(Cl)c1 (stereo not given) |
| 131 to 132 | CC(C(N)=O)c1ccc(-n2cc(Cl)cn2)c(Cl)c1 (stereo not given) |
| 239 to 242 | O=C1O[C@@H](Cn2ccnn2)CN1c1ccc(-c2ccc(C3=NO[C@H](Cn4ccnc4)C3)nc2)c(F)c1 |
| 303 to 308 | COc1ccc(-c2cc(=O)cc(C(N)=O)o2)cc1 |
| 139 to 140 | COc1ccc(-c2cnc(N)c(SC)n2)cc1 |
| 61 to 63 | O=C1OC(c2ccccc2)(c2ccccc2)CC(O)=C1CCCc1ccccc1 |
| 59 to 61 | Cc1ncc(CO)cc1OC(=O)c1cccs1 |
| 271 | N#Cc1c(N2CCN(C(=O)c3cccs3)CC2)c2cccnc2n(Cc2ccc(F)cc2)c1=O |
| 93 | O=P(O)(O)OC(Cn1cncn1)C(c1ccc(F)cc1F)n1cncn1 (stereo not given) |
| 199 to 201 | O=C(CCN1CCN(c2ccccc2)CC1)c1ccc2oc3ccc(C(=O)CCN4CCN(c5ccccc5)CC4)cc3c(=O)c2c1 |
| 190 to 200 | Cc1cnc(C(=O)NCCc2ccc(S(N)(=O)=O)cc2)cn1 |
| 237 to 238 | O=C(NCc1ccccn1)Nc1cc(-n2c(=O)oc3ccccc32)ccn1 |
| 161 to 163 | CCn1c(=O)c2cnn3c2n(c1=O)CC=C3c1cccc(C(F)(F)F)c1 |
| 217 to 221 | CCN(Cc1ccc2nc(C)[nH]c(=O)c2c1)c1ccc(C(=O)NCc2nccn2Cc2ccccc2)cc1 |
| 154 to 160 | CON=Cc1ccc2c(c1)ncn2-c1cccc(-c2nccs2)c1 |
| 91 to 91.5 | COC1=C(OCCCc2ccccc2)c2c(C)ccnc2C(N)([N+](=O)[O-])C1 (stereo not given) |
| 266 to 267 | COc1ccc(Nc2cc3c(cc2Nc2ccccc2)C(=O)NC3=O)cc1 |
| 166 | CC(C)(C)OC(=O)NCc1ccc(N2CC(C(=O)O)OC2=O)cc1 (stereo not given) |
| 187 to 188 | COC(=O)C(C#N)=Cc1cc(-n2c(=O)cc(C(F)(F)F)n(C)c2=O)ccc1Cl |
| 113 to 114 | O=S(N=Cc1ccccc1)c1nccnc1Cl (stereo not given) |

| melting point [°C] | Structure (SMILES) |
| --- | --- |
| 111 to 113 | O=C(NCCCn1ccnc1)c1ccco1 |
| 190 to 192 | COc1ccc(OC)c(Cc2ccc3nc(N)nc(N)c3c2)c1 |
| 227 to 228 | COc1ccsc1S(=O)(=O)Nc1nc2c(OC)cnc(OC)n2n1 |
| > 280 | Cc1c(F)c(F)cc2c(=O)c(C(=O)O)cn(-c3ccc(F)c(O)c3)c12 |
| 278 to 283 | CC(C)NC1=NS(=O)(=O)c2cc(N)ccc2N1 |
| 138 to 139 | C#CC(O)c1ncn(C(c2ccccc2)(c2ccccc2)c2ccccc2)n1 (stereo not given) |
| 30 to 34 | O=[N+]([O-])c1cc(OCc2ccccc2)ccc1CCBr |
| 145 | O=S(CCCCCOc1ccc(C2=C(c3ccccc3)CCCc3cc(O)ccc32)cc1)CCCC(F)(F)F (stereo not given) |
| 147 | Cc1cc(CNC(=O)c2nc3n(c(=O)c2OCc2ccccc2)CCN3c2ccccc2)ccc1F |
| 189 to 191 | CCOC(=O)c1cn(C)c2cc(Br)ccc2c1=O |
| 109 to 111 | CC1CC(=O)c2cccc(C#N)c21 (stereo not given) |
| 183 to 185 | CCCCCCC(C(=O)O)c1ccc(NC(=O)C2(O)c3ccccc3-c3ccccc32)cc1 (stereo not given) |
| 81.5 to 83 | C=CCn1c(-c2ccccc2[N+](=O)[O-])nc2ccccc21 |
| 205 | Cc1cccc(NC(=O)NCC(=O)N(CC(=O)N2CCC(C)(C)CC2)c2ccccc2)c1 |
| 129 to 130 | c1ccc2c(c1)CCc1nc(-c3ccncc3)oc1-2 |
| 121 to 122 | CCCC(=O)c1cnc2c(O)cccc2c1Nc1ccc(F)cc1C |
| 104 to 106 | O=C(OCc1ccccc1)C1C(=O)N(Cc2ccc(Cl)c(Cl)c2)C(=O)c2cccn21 (stereo not given) |
| 126 to 127 | CN(C)C=C1CSc2ccc(Cl)cc2C1=O |
| 270 to 276 | Cc1cc2nc(NC(=O)NCCN3CCOCC3)sc2cc1OC(C)c1c(Cl)ccc(F)c1Cl (stereo not given) |
